Each structure is given as a SMILES string. Positions of bridges follow the written chain, without caps; N, C: chain ends. Non-standard residues stand in square brackets, D forms with d. Residues, ends and D or L forms follow the SMILES beside them. *: point of attachment. Ileψ(thiazoline)Cys = CC[C@H](C)[C@H](N)C1=N[C@H](C(=O)*)CS1; dOrn = NCCC[C@@H](N)C(=O)O

For assay [1], the system named is S. faecalis, E. rhusiopathiae, B. bronchiseptica, S. agalactiae, Streptococcus group E and Vibrio coli. Description: Bactericide test, comparison with chlortetracycline. The class given is cell-based. The following applies: Table A. The text has this:
Test formulations were examined for bactericidal and/or bacteriostatic activity against the test organisms shown in Tables A and B. These organisms were chosen as being representative of commercially important pathogens affecting animal agriculture. The antibiotic chlortetracycline was chosen as a positive control, since it has a broad spectrum of activity against a large number of organisms, and its activity can be used for comparative purposes.
Basic test formulations of the product of Examples I, II, III, and of chlortetracycline were prepared by dissolving 16 mg (0.016 g) in 2.0 ml of stock emulsifier solution (0.25% Triton X-155 in acetone by volume) and making each solution up to 50 ml with deionized water. The concentration of the test compound in the basic formulation was 320 ppm. Lower concentrations of the test compound were obtained by diluting the basic formulation with a 4% solution of the stock emulsifier in deionized water so that each dilution in the series differed only in test compound content.
Nutrient-tryptic soy agar (NTA) consisting of 2.0% Difco Bactoagar 0.8% nutrient broth (Difco), and 0.5% tryptic soy broth (Difco) was prepared and sterilized by autoclaving. A 2 ml aliquot of each test formulation was added to 8 ml of molten NTA. This mixture was then plated in a sterile polystyrene petri dish (100 × 15 mm). After the agar was set, suspensions of each of the test organisms were simultaneously streaked onto the surface of the agar. The inoculated plates were incubated for 48 hr. at 28°C. The inhibition of growth of each organism was rated by visual comparison with the organism developing on non-treated agar. Growth inhibition reported as percent control was rated in three categories as follows: 0% control, growth equivalent to that on non-treated agar; 50% control, sparse development and separated colonies; 100% control, no visible growth or development of colonies.

Assay [2] can be described thus: Example VII: 4 week chick feeding test, weight gain and feed efficiency. The following applies: analysis of variance; over Basal Ration + Bacitracin. The class given is in vivo, broiler cross chicks. The text has this:
One hundred twenty day-old broiler cross chicks were weight equalized into 15 groups of 8 chicks each and placed in battery brooders. The 40 chick treatment groups (5 replicates) were fed the one of the three rations described below for a four week period. weekly measurements of body weights and feed consumption were made by replicate, and these measurements used to calculate weight gain and feed efficiency.
The commercial type broiler starter basal ration which was used in this study was designated as the Basal Ration, and had the following composition:
The preceding basal ration was mixed with bacitracin at a level of 4 g/T as the only growth stimulant to simulate commercial practice. This mixture was designated as the Basal Ration + Bacitracin (4 g/T) and constituted the negative control in this study.
A second ration was prepared by fortifying the Basal Ration + bacitracin described above with the Product from Example I above at a level of 200 g/T, and was designated as Basal Ration + Bacitracin + Product of Example I (200 g/T). A third ration was prepared by fortifying the Basal Ration + bacitracin described above with chlortetracycline (CTC) at a level of 200 g/T, and was designated as Basal Ration + Bacitracin + Chlortetracycline (200 g/T).
The term "growth promotion" is used herein to describe the beneficial effect of a compound in eliciting a more rapid of weight gain when compared to the weight gain of control animals not fed the compound. "Feed efficiency" is a term regularly used in animal husbandry and is a measure of the pounds of feed required to produce a pound of gain in the weight of the animal. A lower mathmatical value for feed efficiency reflects improved performance.

The nature of assay [3]: Example XI: 4 week chick feeding test, five replicates. The class given is in vivo, broiler cross chicks. The following applies: for feed efficiency (in words) / growth rate (in words): Table V. The text has this:
(§1) This example compares growth promotion activity of the product of Example I with other growth promotants at a concentration of 25 g/T in the Basal Ration described in Example VII. The other growth promotants include the product described in Example I of U.S. Pat. No. 3,542,784 -- Burch and quinoxaline-1,4-dioxide. Day old broiler cross chicks were weight equalized into groups of 8 chicks each, and four replicates of 8 chicks each were fed the experimental rations over a 4 week period.
The growth promotion tests described in Example X were repeated with the exception that fives replicates of 8 chicks each were fed the formulations described in Table V for four weeks.

Assay [4] can be described thus: Example VIII: 4 week chick feeding test at low levels. It counts as in vivo, broiler cross chicks. The text has this: (§2) Day old broiler cross chicks were weight equalized into groups of 8 chicks each and were placed in battery brooders. The 32 chick treatment groups (4 replicates) were fed one of the five rations described below for a four week period. Weekly measurements of body weights and feed consumption were made by replicate, and these measurements used to calculate weight gain and feed efficiency.
The basal ration was the basal ration used in Example VII above. The remaining five rations wer obtained by mixing the indicated quantities of bacitracin (4 g/T), chlortetracycline (10 g/T), product of Example I (10 g/T), and product of Example II of U.S. Pat. No. 3,542,784 -- Burch (10 g/T) as growth promotants with the basal ration.

Assay [5] in a line: Example XII: 4 week chick feeding test, repeat with five replicates (Table VII). It counts as in vivo, broiler cross chicks. The following applies: Table VII.
The nature of assay [6]: Example X: 4 week chick feeding test, 25 g/T. The class given is in vivo, broiler cross chicks.
From the text: as §1

The nature of assay [7]: Example IX: chick feeding test, titration dosage. The class given is in vivo, broiler cross chicks.
From the text: as §2
The concentrations used in this test were 6.25, 12.5, 25, 50, 100, 200 and 400 g of the Product of Example I per ton of the Basal Ration described in Example VII above. The same number and size chick treatment groups were used in this test as in Example VIII above.

The nature of assay [8]: Example XIII: 6 week swine feeding test, growth rate and feed efficiency. It counts as in vivo, weanling pigs. The following applies: Table VIII. The text has this: Thirty-six weanling pigs weighing approximately thirty pounds each in good physical condition and originating from a common source were used in these tests. The pigs were allocated into sex and weight equalized pens of six pigs each. A one week period was allowed for acclimatization before testing. Three replicates of six pigs were fed the basal ration described below, and three replicates were fed the same basal ration supplemented with 25 g/T of the product of Example I.
The basal ration was a 17% commercial corn-soya pelletized formulation which was free of antibiotic and drug components. Composition of the basal ration formulation was: […]
The rations were offered ad libitum from six bushel self-feeders with a continuous supply of fresh water. The same ration formulations were used throughout the six week feeding period. Individual pig weighing were made after 0,2,4 and 6 (termination) week periods. Feed consumption records were kept on a pen basis, with feed efficiency conversion being compiled at the end of the 2nd, 4th and 6th (termination) week of feeding. Complete morbidity and mortality records were kept.

The nature of assay [9]: Example XII: 4 week chick feeding test, first set (Table VI). To be noted: Table VI. It counts as in vivo, broiler cross chicks.
From the text: as §1
The growth promotion tests described in Example X were repeated with the additional testing the products of Examples II and III.

For `O=[N+]([O-])c1ccc(C=Cc2nc(Nc3ccccc3)c3ccccc3n2)o1` [Example IV, 2-[2-(5-nitro-2-furyl)vinyl]-4-anilinoquinazoline], in assay [1], the “effectiveness relative to chlortetracycline (in words)” value is recorded as “considerably more effective”.
For the compound `CN(C)[C@@H]1C(O)=C(C(N)=O)C(=O)[C@@]2(O)C(O)=C3C(=O)c4c(O)ccc(Cl)c4[C@@](C)(O)[C@H]3C[C@@H]12` [Chlortetracycline, reference compound], in assay [2], the “statistical significance of improved feed efficiencies” value is “significant at the 99.9% level of probability” and the “statistical significance of improved weight gains” value is “significant at the 99.5% level of probability”. In addition, in assay [3], the “feed efficiency (in words)” value is “moderate improvements in feed efficiencies” and the “growth rate (in words)” value was “slight improvements in growth rates”.
As for `CC[C@H](C)[C@H](N)C1=N[C@H](C(=O)N[C@@H](CC(C)C)C(=O)N[C@H](CCC(=O)O)C(=O)N[C@H](C(=O)N[C@H]2CCCCNC(=O)[C@H](CC(N)=O)NC(=O)[C@@H](CC(=O)O)NC(=O)[C@H](Cc3cnc[nH]3)NC(=O)[C@@H](Cc3ccccc3)NC(=O)[C@H]([C@@H](C)CC)NC(=O)[C@@H](CCCN)NC2=O)[C@@H](C)CC)CS1` [Bacitracin] ({Ileψ(thiazoline)Cys}-L[dE]IK[dOrn]I[dF]H[dD]N; lactam 4-C), in assay [4] (4 g/T in Basal Ration), the “Improved Response Over Basal Ration: Feed Efficiency” value is “+1.2%” and the “Improved Response Over Basal Ration: Gain” value is -2.3%. Moreover, in [3] (25g/T), the “Improved Response Over Basal Ration: Feed Efficiency” value is listed as “+3.1%” and the “Improved Response Over Basal Ration: Gain” value is listed as “+1.2%”. In assay [3], the “feed efficiency (in words)” value is given as “moderate improvements in feed efficiencies” and the “growth rate (in words)” value is recorded as “slight improvements in growth rates”.
As for `O=[N+]([O-])c1ccc(C=Cc2nc(Nc3ccc(O)cc3)c3ccccc3n2)o1` [Example I, 2-[2-(5-nitro-2-furyl)vinyl]-4-(p-hydroxyanilino)quinazoline], the “growth rate / feed efficiency response (in words)” value in [5] is on record as “moderate improvement in production parameters”. In assay [2], the “statistical significance of improved feed efficiencies” value is “significant at the 99.9% level of probability” and the “statistical significance of improved weight gains” value was “significant at the 99.5% level of probability”. For the same compound, the “growth promotion (in words)” value in assay [4] (Table II, compared with other growth promotants) is “greater growth promotion than any of the other growth promotants”. In addition, in [6] (25g/T), the “Average 4 Week Performance: Feed Efficiency” value came out at 1.503, the “Improved Response Over Basal Ration: Feed Efficiency” value was “+3.2%” and the “Improved Response Over Basal Ration: Gain” value was “+6.2%”. The “growth rate and feed efficiency response (in words)” value in [6] (25 g/T, Table IV) was “strongest response in growth rate and feed efficiency”. Besides, the “growth promotion (in words)” value in assay [7] (12.5 g/T) is recorded as “noticeable growth promotion”. Also, the “weight gain and feed efficiency (in words)” value in [7] (25 and 50 g/T) was “improvements in weight gain and feed efficiency”. Also, in assay [7] (100 g/T), the “weight gain (in words)” value is recorded as “absence of weight gain improvement”. Moreover, the “improvement (in words)” value in assay [7] (200 g/T) is on record as “substantial improvements”. For the same compound, the optimum concentration in assay [7] (economics and efficacy) is 25 g/T. In [3] (25g/T + 25g/T bacitracin), the “combined effect with bacitracin (in words)” value was “synergistic effects”. In assay [3] (25g/T + Bacitracin (25g/T)), the “Improved Response Over Basal Ration: Feed Efficiency” value is on record as “+7.5%” and the “Improved Response Over Basal Ration: Gain” value was “+4.6%”. Also, in assay [3], the “feed efficiency (in words)” value was “substantial improvement in feed efficiency” and the “growth rate (in words)” value was “moderate improvement in growth rate”. In addition, in assay [8], the “feed efficiency (in words)” value was “enhanced feed efficiency” and the “growth (in words)” value is recorded as “very substantial growth improvement”. In addition, the “effectiveness relative to chlortetracycline (in words)” value in [1] is given as “considerably more effective”. The “growth rate / feed efficiency response (in words)” value in [9] is reported as “moderate improvement in production parameters”.
As to `O=[N+]([O-])c1ccc(C=Cc2nc(Nc3cccc(O)c3)c3ccccc3n2)o1` [Example II, 2-[2-(5-nitro-2-furyl)vinyl]-4-(m-hydroxyanilino)quinazoline], the “effectiveness relative to chlortetracycline (in words)” value in assay [1] is reported as “considerably more effective”. For the same compound, in [9], the “growth rate / feed efficiency response (in words)” value was “moderate improvements”.

These data come from patent US3973021A, “2-[2-(5-Nitro-2-furyl)vinyl]-4-(phydroxyanilino)quinazoline as a bactericide” (Diamond Shamrock Corporation, priority 1975, dated 1976).
